Test results published in US20220017512A1 (SHANGHAI ENNOVABIO PHARMACEUTICALS CO., LTD., priority 2018, published 2022).

How the values were obtained:
[1] = molecular target: T1, Recombinant human TRKA (Homo sapiens, UniProt P04629); test: In vitro activity test on TRKA kinase (HTRF KinEASE TK); assay type: biochemical; conditions: 14.68 μM ATP, 40 min
T1 construct: purchased Carna Biosciences
How it was run: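 Reaction: 0.2 ng/μL TRKA, 1 μM biotinylated TK substrate, 14.68 μM ATP, 5 mM MgCl2, 1 mM DTT, 1% DMSO, 40 min at room temperature. Compounds tested at 1 μM to 0.05 nM (10-point, 3-fold, duplicate). HTRF 665/620 ratio converted to % inhibition versus no-compound control; IC50 by 4-parameter fit.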

[2] = molecular target: T2, Recombinant human TRKC (Homo sapiens, UniProt Q16288); test: In vitro activity test on TRKC kinase (HTRF KinEASE TK); assay type: biochemical; conditions: 25.64 μM ATP, 40 min
T2 construct: purchased Carna Biosciences
T2 sequence (Q16288 32-839): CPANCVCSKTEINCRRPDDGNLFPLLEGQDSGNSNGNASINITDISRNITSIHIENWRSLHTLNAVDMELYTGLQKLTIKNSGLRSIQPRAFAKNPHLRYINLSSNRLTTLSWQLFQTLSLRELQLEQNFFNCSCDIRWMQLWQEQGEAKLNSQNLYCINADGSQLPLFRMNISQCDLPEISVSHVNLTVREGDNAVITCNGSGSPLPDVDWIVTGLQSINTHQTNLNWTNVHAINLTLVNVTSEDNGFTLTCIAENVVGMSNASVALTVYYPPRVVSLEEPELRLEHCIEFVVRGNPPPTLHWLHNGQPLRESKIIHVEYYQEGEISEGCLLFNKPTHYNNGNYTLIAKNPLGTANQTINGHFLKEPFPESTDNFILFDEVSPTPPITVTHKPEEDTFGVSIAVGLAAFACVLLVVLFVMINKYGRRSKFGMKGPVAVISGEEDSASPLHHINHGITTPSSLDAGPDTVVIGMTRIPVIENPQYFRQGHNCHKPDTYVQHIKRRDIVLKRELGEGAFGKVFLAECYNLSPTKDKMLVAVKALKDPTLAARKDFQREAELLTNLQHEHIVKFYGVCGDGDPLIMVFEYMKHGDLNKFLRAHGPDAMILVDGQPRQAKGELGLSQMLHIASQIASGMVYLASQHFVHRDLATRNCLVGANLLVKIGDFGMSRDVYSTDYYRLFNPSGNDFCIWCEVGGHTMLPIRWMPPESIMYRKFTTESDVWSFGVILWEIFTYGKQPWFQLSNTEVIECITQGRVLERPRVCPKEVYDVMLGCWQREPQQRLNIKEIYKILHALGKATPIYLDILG
How it was run: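 Recombinant human TRKC (0.037 ng/μL) with 1 μM biotinylated TK substrate, 25.64 μM ATP, 5 mM MgCl2, 1 mM DTT, 40 min at room temperature; compound 1 μM to 0.05 nM, 1% DMSO. HTRF 665/620 ratio after overnight detection; IC50 from 4-parameter fit.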

[3] = molecular target: T3, recombinant human TRKA (G595R) (Homo sapiens, UniProt P04629, G595R); test: In vitro activity test on mutant TRKA (G595R) (HTRF KinEASE TK); assay type: biochemical; conditions: 4.5 μM ATP, 30 min
T3 construct: purchased SignalChem
T3 sequence (P04629 33-796 G595R): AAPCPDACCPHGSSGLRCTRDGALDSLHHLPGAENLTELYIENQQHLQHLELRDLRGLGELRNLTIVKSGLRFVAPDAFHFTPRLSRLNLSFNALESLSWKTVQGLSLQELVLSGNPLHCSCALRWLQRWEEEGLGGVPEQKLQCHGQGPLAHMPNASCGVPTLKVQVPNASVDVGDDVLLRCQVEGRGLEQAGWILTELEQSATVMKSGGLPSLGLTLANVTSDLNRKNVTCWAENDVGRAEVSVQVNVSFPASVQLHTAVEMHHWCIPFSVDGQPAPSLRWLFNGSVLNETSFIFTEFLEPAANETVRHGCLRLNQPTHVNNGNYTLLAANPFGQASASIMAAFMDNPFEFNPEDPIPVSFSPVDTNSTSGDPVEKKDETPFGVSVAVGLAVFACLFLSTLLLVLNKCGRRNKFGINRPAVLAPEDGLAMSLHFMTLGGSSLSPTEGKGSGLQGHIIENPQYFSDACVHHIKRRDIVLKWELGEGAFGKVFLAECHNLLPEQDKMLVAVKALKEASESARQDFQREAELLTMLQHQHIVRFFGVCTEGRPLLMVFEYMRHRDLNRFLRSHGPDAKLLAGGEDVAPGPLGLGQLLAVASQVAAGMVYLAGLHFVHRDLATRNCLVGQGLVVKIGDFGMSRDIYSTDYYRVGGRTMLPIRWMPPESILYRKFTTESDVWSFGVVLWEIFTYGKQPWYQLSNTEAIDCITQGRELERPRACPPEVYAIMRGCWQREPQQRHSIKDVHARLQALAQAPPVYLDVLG
How it was run: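 HTRF KinEASE TK format: 0.12 ng/μL recombinant TRKA (G595R), 1 μM biotinylated TK substrate, 4.5 μM ATP, 5 mM MgCl2, 1 mM DTT, 1% DMSO, 30 min at room temperature; detection overnight. IC50 from 10-point 4-fold series (1 μM to 0.004 nM, duplicates), 665/620 ratio, 4-parameter fit.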

[4] = molecular target: T4, Recombinant human TRKB (Homo sapiens, UniProt Q16620); test: In vitro activity test on TRKB kinase (HTRF KinEASE TK); assay type: biochemical; conditions: 4.77 μM ATP, 50 min
T4 construct: purchased Carna Biosciences
T4 sequence (Q16620 32-822): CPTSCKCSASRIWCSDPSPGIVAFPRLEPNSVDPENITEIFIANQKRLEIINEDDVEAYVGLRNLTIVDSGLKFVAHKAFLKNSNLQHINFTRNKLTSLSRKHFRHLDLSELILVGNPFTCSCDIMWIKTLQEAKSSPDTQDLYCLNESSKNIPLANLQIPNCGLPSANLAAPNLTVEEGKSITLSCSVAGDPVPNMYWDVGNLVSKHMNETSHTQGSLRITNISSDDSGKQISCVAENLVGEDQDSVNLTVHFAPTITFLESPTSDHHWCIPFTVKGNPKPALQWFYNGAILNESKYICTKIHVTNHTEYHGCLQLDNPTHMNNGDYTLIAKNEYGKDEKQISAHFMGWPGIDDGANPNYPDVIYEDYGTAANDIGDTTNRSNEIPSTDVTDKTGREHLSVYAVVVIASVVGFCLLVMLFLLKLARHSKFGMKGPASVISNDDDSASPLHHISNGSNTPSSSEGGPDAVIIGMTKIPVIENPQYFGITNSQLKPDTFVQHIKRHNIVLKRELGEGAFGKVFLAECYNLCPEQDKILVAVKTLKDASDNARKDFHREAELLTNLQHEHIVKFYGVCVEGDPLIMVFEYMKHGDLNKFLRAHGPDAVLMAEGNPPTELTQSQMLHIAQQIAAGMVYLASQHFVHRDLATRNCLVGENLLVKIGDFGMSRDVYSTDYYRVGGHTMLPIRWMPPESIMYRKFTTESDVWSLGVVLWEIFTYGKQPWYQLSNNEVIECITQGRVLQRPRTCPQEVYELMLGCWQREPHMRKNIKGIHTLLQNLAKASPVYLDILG
How it was run: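 Recombinant human TRKB (0.037 ng/μL) phosphorylated 1 μM biotinylated TK substrate at 4.77 μM ATP, 5 mM MgCl2, 1% DMSO, 50 min at room temperature; compounds 1 μM–0.05 nM. HTRF KinEASE detection overnight; 665/620 ratio converted to inhibition and IC50 from 4-parameter fit.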

[5] = Pharmacokinetics experiment in mice; assay type: in vivo, ICR mice; conditions: mouse, 5 mg/kg; for Cmax / half-life / AUC(0-t): ICR, plasma, po; for AUC(0-t) / F: p.o.; for AUC(0-t): read-out: AUC0-24 hr
Experimental: Biological Test Example 6: Pharmacokinetics Experiment of Small Molecular Inhibitors of the Present Invention in Mice
Tested compounds were administered to ICR mice via intravenous administration (IV) and para-oral (PO) administration, and blood samples were taken at different time points. The concentration of the tested article in mouse plasma was measured by LC-MS/MS, and relevant parameters were calculated. Specifically, a desired amount of a compound to be tested was taken and formulated in 5% DMSO+10% Solutol+85% injection water to form a solution at desired concentration for intravenous administration or para-oral administration. Animals were about 6-8 weeks old when the administration experiment started. Blood collection time for intravenous administration: 0.083 h, 0.25 h, 0.5 h, 1 h, 2 h, 4 h, 8 h, and 24 h after administration. Blood collection time for oral administration: 0.25 h, 0.5 h, 1 h, 2 h, 4 h, 6 h, 8 h and 24 h after administration. The biological sample analysis method and sample detection method were established. The pharmacokinetic parameters were calculated using Phoenix Winnonlin 7.0 software according to plasma concentration data at different time points, such as AUC(0-t), AUC(0-∞), T½, Cmax, Tmax, and MRT.

[6] = molecular target: T5, recombinant human TRKA (G667C) (Homo sapiens, UniProt P04629, G667C); test: In vitro activity test on mutant TRKA (G667C) (HTRF KinEASE TK); assay type: biochemical; conditions: 5.5 μM ATP, 30 min
T5 construct: purchased SignalChem
T5 sequence (P04629 33-796 G667C): as the sequence (P04629 33-796 G595R) above, with R563G, G635C counted along it
How it was run: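 HTRF KinEASE TK format with recombinant human TRKA G667C (0.026 ng/μL), 1 μM biotinylated TK substrate, 5.5 […] ATP, 5 mM MgCl2, 1 mM DTT, 1% DMSO; 30 min at room temperature. Detection overnight; 665/620 ratio gives % inhibition, IC50 from 4-parameter fit over 10 doses (1 μM–0.004 nM).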

T1 sequence (P04629 33-796): as the sequence (P04629 33-796 G595R) above, with R563G counted along it

| Compound | IC50 [1] [nM] | IC50 [2] [nM] | IC50 [3] [nM] | IC50 [4] [nM] | Cmax [5] [ng/mL] | half-life [5] [h] | AUC(0-t) [5] [ng·h/mL] | F [5] [%] | IC50 [6] [nM] |
| --- | --- | --- | --- | --- | --- | --- | --- | --- | --- |
| Fc1ccc(F)c([C@H]2C[C@H](F)CN2c2ccc3ncc(Cl)c(-c4cnn(C5CCNCC5)c4)c3n2)c1 [Example 16, 7-chloro-2-((2R,4S)-2-(2,5-difluorophenyl)-4-fluoropyrrolidin-1-yl)-8-(1-(piperidin-4-yl)-1H-pyrazol-4-yl)-1,5-naphthyridine] | < 1 | < 1 | < 10 | < 1 | 714 | 2.34 | 3230 | 107 | < 1 |
| Fc1ccc(F)c([C@H]2C[C@H](F)CN2c2ccc3ncc(F)c(-c4cnn(C5CCNCC5)c4)c3n2)c1 [Example 20] | < 1 | < 1 | < 1 | < 1 | 448 | 2.82 | 2700 | 144 | < 1 |
| Fc1ccc(F)c([C@H]2C[C@H](F)CN2c2ccc3ncc(Cl)c(-c4cn(C5CCNCC5)nn4)c3n2)c1 [Example 67, 7-chloro-2-((2R,4S)-2-(2,5-difluorophenyl)-4-fluoropyrrolidin-1-yl)-8-(1-(piperidin-4-yl)-2H-1,2,3-triazol-4-yl)-1,5-naphthyridine] | < 1 | < 1 | < 10 | < 1 |  |  |  |  | < 10 |
| O=S(=O)(Nc1ccnc2ccc(N3C[C@@H](F)C[C@@H]3c3cc(F)ccc3F)nc12)N1CC[C@H](O)C1 [Example 69, (S)—N-(6-((2R,4S)-2-(2,5-difluorophenyl)-4-fluoropyrrolidin-1-yl)-1,5-naphthyridin-4-yl)-3-hydroxypyrrolidin-1-sulfonamide] | < 1 | < 1 | < 1 | < 1 |  |  |  |  | < 10 |
| O[C@H]1CCN(c2cnn(-c3ncnc4ccc(N5C[C@@H](F)C[C@@H]5c5cc(F)ccc5F)nc34)c2)C1 [Example 70, (S)-1-(1-(6-((2R,4S)-2-(2,5-difluorophenyl)-4-fluoropyrrolidin-1-yl)pyrido[3,2-d]pyrimidin-4-yl)-1H-pyrazol-4-yl)pyrrolidin-3-ol] | < 1 | < 1 | < 10 | < 1 |  |  |  |  | < 10 |
| O[C@H]1CCN(c2ncnc3ccc(N4C[C@@H](F)C[C@@H]4c4cc(F)ccc4F)nc23)C1 [Example 71, (S)-1-(6-((2R,4S)-2-(2,5-difluorophenyl)-4-fluoropyrrolidin-1-yl)pyrido[3,2-d]pyrimidine-4-yl)pyrrolidin-3-ol] | < 1 | < 1 | < 1 | < 1 |  |  |  |  | < 10 |
| O[C@H]1CCN(c2ncc(-c3ncnc4ccc(N5C[C@@H](F)C[C@@H]5c5cc(F)ccc5F)nc34)cn2)C1 [Example 72, (S)-1-(5-(6-((2R,4S)-2-(2,5-difluorophenyl)-4-fluoropyrrolidin-1-yl)pyrido[3,2-d]primidin-4-yl)pyrimidin-2-yl)pyrrolidin-3-ol] | < 1 | < 1 | < 1 | < 1 |  |  |  |  | < 10 |
